Data published in ChEMBL document CHEMBL6092220 (J Med Chem, 2024).
One block for each molecule: values may come before it.

Key:
[1] = Chemical stability of the compound in PBS buffer assessed as half life at pH 4; assay type: physicochemical
[2] = Chemical stability of the compound in PBS buffer assessed as half life at pH 8; assay type: physicochemical
[3] = Chemical stability of the compound in PBS buffer assessed as half life at pH 7.4; assay type: physicochemical
[4] = Antiproliferative activity against human SUPM2 cells assessed as cell growth inhibition incubated for 4 days by celltiter-glo assay; assay type: functional, cell-based; conditions: SUP-M2, 96 h
[5] = biological target: Signal transducer and activator of transcription 4 (Homo sapiens) (UniProt Q14765); assay: Binding affinity to STAT4 (unknown origin) assessed as maximum inhibition by FP assay relative to control
[6] = biological target: T1, Signal transducer and activator of transcription 3 (Homo sapiens, UniProt P40763); assay: Binding affinity to STAT3 (unknown origin) assessed as maximum inhibition by FP assay relative to control
[7] = biological target: Signal transducer and activator of transcription 6 (Homo sapiens) (UniProt P42226); assay: Binding affinity to STAT6 (unknown origin) assessed as maximum inhibition by FP assay relative to control
[8] = Antiproliferative activity against human MOLM16 cells assessed as cell growth inhibition incubated for 4 days by celltiter-glo assay; assay type: functional, cell-based, MOLM-16; conditions: MOLM16, 96 h
[9] = tested on: SU-DHL-1; assay: Antiproliferative activity against human SU-DHL-1 cells assessed as cell growth inhibition incubated for 4 days by celltiter-glo assay; assay type: functional, cell-based; conditions: SU-DHL-1, 96 h
[10] = biological target: T2, Protein cereblon/Signal transducer and activator of transcription 3 (Homo sapiens, UniProt P40763+Q96SW2); assay: PROTAC activity at his-SUMO-tagged STAT3 (127 to 688 residues)/CRBN in human HeLa cells assessed as induction of STAT3 degradation incubated for 24 hrs by TECAN SPARK microplate reader analysis relative to control; assay type: cell-based
[11] = Binding affinity to STAT5 (unknown origin) by FP assay; set-up: species or system Homo sapiens
[12] = biological target: Signal transducer and activator of transcription 1-alpha/beta (Homo sapiens, UniProt P42224); assay: Binding affinity to STAT1 (unknown origin) by FP assay
[13] = biological target: Signal transducer and activator of transcription 4 (Homo sapiens, UniProt Q14765); assay: Binding affinity to STAT4 (unknown origin) by FP assay
[14] = biological target: Signal transducer and activator of transcription 6 (Homo sapiens, UniProt P42226); assay: Binding affinity to STAT6 (unknown origin) by FP assay
[15] = biological target: T2, Protein cereblon/Signal transducer and activator of transcription 3; assay: PROTAC activity at his-SUMO-tagged STAT3 (127 to 688 residues)/CRBN in human HeLa cells assessed as induction of STAT3 degradation incubated for 24 hrs by TECAN SPARK microplate reader analysis; assay type: cell-based
[16] = biological target: Protein cereblon/Signal transducer and activator of transcription 4 (Homo sapiens, UniProt Q96SW2+Q14765); assay: PROTAC activity at STAT4/CRBN in human SU-DHL-1 cells assessed as reduction in STAT4 level incubated for 20 hrs by Western blot analysis; assay type: cell-based; conditions: dose <= 40.0 µM
[17] = biological target: Signal transducer and activator of transcription 1-alpha/beta (Homo sapiens) (UniProt P42224); assay: Binding affinity to STAT1 (unknown origin) assessed as maximum inhibition by FP assay relative to control
[18] = Chemical stability of the compound in PBS buffer at pH 4; assay type: physicochemical
[19] = Chemical stability of the compound in PBS buffer at pH 7.4; assay type: physicochemical
[20] = Chemical stability of the compound in PBS buffer at pH 8; assay type: physicochemical
[21] = biological target: T1, Signal transducer and activator of transcription 3; assay: Binding affinity to STAT3 (unknown origin) assessed as inhibition constant
[22] = Clearance in ICR mouse at 5 mg/kg, iv; assay type: ADME, organism-based; conditions: in vivo
[23] = AUC (0 to t) in Sprague-Dawley rat at 5 mg/kg, iv; assay type: ADME, organism-based; conditions: in vivo
[24] = biological target: T3, Protein cereblon/Signal transducer and activator of transcription 3 (Mus musculus) (UniProt P42227+Q8C7D2); assay: In-vivo PROTAC activity at STAT3/CRBN in female CB17 SCID mouse assessed as reduction STAT3 level spleen at 10 mg/kg, iv measured at 24 hrs by Western blot analysis; assay type: functional, organism-based; set-up: scale not given: the % may be the effect or the level left
[25] = Apparent volume of distribution in ICR mouse at 5 mg/kg, iv; assay type: ADME, organism-based; conditions: in vivo, read-out: Vz
[26] = biological target: T3, Protein cereblon/Signal transducer and activator of transcription 3 (Mus musculus); assay: In-vivo PROTAC activity at STAT3/CRBN in female CB17 SCID mouse assessed as reduction STAT3 level liver at 10 mg/kg, iv measured at 48 hrs by Western blot analysis; assay type: functional, organism-based; set-up: scale not given: the % may be the effect or the level left
[27] = biological target: T3, Protein cereblon/Signal transducer and activator of transcription 3 (Mus musculus); assay: In-vivo PROTAC activity at STAT3/CRBN in female CB17 SCID mouse assessed as reduction STAT3 level spleen at 10 mg/kg, iv measured at 48 hrs by Western blot analysis; assay type: functional, organism-based; set-up: scale not given: the % may be the effect or the level left
[28] = Clearance in Beagle dog at 1 mg/kg, iv; assay type: ADME, organism-based, Canis lupus familiaris; conditions: in vivo
[29] = Plasma protein binding in dog assessed as unbound fraction at 10 uM; assay type: ADME, cell-free, Canis lupus familiaris
[30] = Plasma protein binding in dog at 10 uM; assay type: ADME, cell-free, Canis lupus familiaris
[31] = Plasma protein binding in mouse at 10 uM; assay type: ADME, cell-free
[32] = biological target: T3, Protein cereblon/Signal transducer and activator of transcription 3 (Mus musculus); assay: In-vivo PROTAC activity at STAT3/CRBN in female CB17 SCID mouse assessed as reduction STAT3 level liver at 10 mg/kg, iv measured at 72 hrs by Western blot analysis; assay type: functional, organism-based; set-up: scale not given: the % may be the effect or the level left
[33] = AUC (0 to t) in ICR mouse at 5 mg/kg, iv; assay type: ADME, organism-based; conditions: in vivo
[34] = Apparent volume of distribution in Sprague-Dawley rat at 5 mg/kg, iv; assay type: ADME, organism-based; conditions: in vivo, read-out: Vz
[35] = Plasma protein binding in human at 10 uM; assay type: ADME, cell-free
[36] = Cmax in Beagle dog at 1 mg/kg, iv; assay type: ADME, organism-based, Canis lupus familiaris; conditions: in vivo
[37] = Plasma protein binding in rat assessed as unbound fraction at 10 uM; assay type: ADME, cell-free
[38] = Half life in ICR mouse at 5 mg/kg, iv; assay type: ADME, organism-based; conditions: in vivo
[39] = Plasma protein binding in human assessed as unbound fraction at 10 uM; assay type: ADME, cell-free
[40] = Half life in Beagle dog at 1 mg/kg, iv; assay type: ADME, organism-based, Canis lupus familiaris; conditions: in vivo
[41] = Plasma protein binding in rat at 10 uM; assay type: ADME, cell-free
[42] = Clearance in Beagle dog assessed as hepatic blood flow at 1 mg/kg, iv; assay type: ADME, organism-based, Canis lupus familiaris; conditions: in vivo
[43] = Clearance in ICR mouse assessed as hepatic blood flow at 5 mg/kg, iv; assay type: ADME, organism-based; conditions: in vivo
[44] = Cmax in Sprague-Dawley rat at 5 mg/kg, iv; assay type: ADME, organism-based; conditions: in vivo
[45] = Half life in Sprague-Dawley rat at 5 mg/kg, iv; assay type: ADME, organism-based; conditions: in vivo
[46] = biological target: T3, Protein cereblon/Signal transducer and activator of transcription 3 (Mus musculus); assay: In-vivo PROTAC activity at STAT3/CRBN in female CB17 SCID mouse assessed as reduction STAT3 level liver at 10 mg/kg, iv measured at 24 hrs by Western blot analysis; assay type: functional, organism-based; set-up: scale not given: the % may be the effect or the level left
[47] = Clearance in Sprague-Dawley rat assessed as hepatic blood flow at 5 mg/kg, iv; assay type: ADME, organism-based; conditions: in vivo
[48] = AUC (0 to t) in Beagle dog at 1 mg/kg, iv; assay type: ADME, organism-based, Canis lupus familiaris; conditions: in vivo
[49] = Clearance in Sprague-Dawley rat at 5 mg/kg, iv; assay type: ADME, organism-based; conditions: in vivo
[50] = Apparent volume of distribution in Beagle dog at 1 mg/kg, iv; assay type: ADME, organism-based, Canis lupus familiaris; conditions: in vivo, read-out: Vz
[51] = Cmax in ICR mouse at 5 mg/kg, iv; assay type: ADME, organism-based; conditions: in vivo
[52] = biological target: T3, Protein cereblon/Signal transducer and activator of transcription 3 (Mus musculus); assay: In-vivo PROTAC activity at STAT3/CRBN in female CB17 SCID mouse assessed as reduction STAT3 level spleen at 10 mg/kg, iv measured at 72 hrs by Western blot analysis; assay type: functional, organism-based; set-up: scale not given: the % may be the effect or the level left

Compound: CN1CC[C@H]2CC[C@@H](C(=O)N[C@@H](CCC(N)=O)C(=O)NC(c3ccccc3)c3ccccc3)N2C(=O)[C@@H](NC(=O)c2cc3cc(C(F)(F)P(=O)(O)O)ccc3[nH]2)C1
t1/2 [1]: 4 h | t1/2 [2]: 2 h | t1/2 [3]: 2 h

Compound: NC(=O)CC[C@H](NC(=O)[C@@H]1CC[C@@H]2CCN(C(=O)CCCCCC#Cc3cccc4c3CN(C3CCC(=O)NC3=O)C4=O)C[C@H](NC(=O)c3cc4cc(C(F)(F)P(=O)(O)O)ccc4[nH]3)C(=O)N21)C(=O)NC(c1ccccc1)c1ccccc1 (some centres not stated)
IC50 [4]: 490 nM | Imax [5]: 93% | Imax [6]: 100% | Imax [7]: 0% | IC50 [8]: 30 nM | IC50 [9]: 330 nM | Emax [10]: 86% | IC50 [11]: > 10 nM | IC50 [12]: 1300 nM | IC50 [13]: 1100 nM | IC50 [14]: > 10000 nM | DC50 [15]: 400 nM | Activity [16]: Dose-dependent-effect | Imax [17]: 92%

Stability [18]: Stable | Stability [19]: Stable | Stability [20]: Stable | Ki [21]: 6 nM
Compound: CN1CC[C@H]2CC[C@@H](C(=O)N[C@@H](CCC(N)=O)C(=O)NC(c3ccccc3)c3ccccc3)N2C(=O)[C@@H](NC(=O)c2cc3cc(C(F)(F)P(=O)(O)O)ccc3s2)C1

Compound: CC(=O)N1CC[C@H]2CC[C@@H](C(=O)N[C@@H](CCC(N)=O)C(=O)N[C@@H](Cc3ccc(F)c(F)c3)C(=O)N3CCC(CCC#Cc4cccc5c4CN(C4CCC(=O)NC4=O)C5=O)CC3)N2C(=O)[C@@H](NC(=O)c2cc3cc(C(F)(F)P(=O)(O)O)ccc3s2)C1 (some centres not stated)
clearance [22]: 0.073 mL/min/kg | AUC(0-t) [23]: 21100 ng·h/mL | Activity [24]: > 90% | IC50 [4]: 1460 nM | Vd [25]: 0.11 L/kg | Activity [26]: > 90% | IC50 [8]: 75 nM | IC50 [9]: 3580 nM | Activity [27]: > 90% | clearance [28]: 1 mL/min/kg | Emax [10]: 68% | Fu [29]: 3.3% | PPB [30]: 96.7% | PPB [31]: 99.1% | Activity [32]: > 90% | AUC(0-t) [33]: 739000 ng·h/mL | Vd [34]: 0.44 L/kg | PPB [35]: 99.4% | Cmax [36]: 8030 ng/mL | Fu [37]: 3.8% | half-life [38]: 16.9 h | Fu [39]: 0.6% | half-life [40]: 2.9 h | PPB [41]: 96.2% | QH [42]: 3.1% | DC50 [15]: 1600 nM | QH [43]: 0.1% | Cmax [44]: 15900 ng/mL | half-life [45]: 1.3 h | Activity [46]: > 90% | QH [47]: 7.3% | AUC(0-t) [48]: 15000 ng·h/mL | clearance [49]: 4 mL/min/kg | Vd [50]: 0.24 L/kg | Cmax [51]: 121000 ng/mL | Activity [52]: > 90%
